Measurements: patent US7291499B2, “Transformed cell, method of screening anti-aging agent and anti-aging agent” (priority 2001, dated 2007)

Legend:
[1] = tested on: WI-38 cell with activated Raf kinase region-estrogen receptor fusion gene; assay: β-galactosidase positive cells in tamoxifen-inducible activated Raf cellular senescence system; type: cell-based, human; details: for inhibition of the increase of cellular senescence-specific β-galactosidase positive cell induced by the activation of Raf: Raf activated by 10 nM tamoxifen, 25 μM inhibitor added simultaneously
Procedure: (§1) This is a result of fusing an estrogen receptor gene with a sequence coding for the kinase region of activated Raf gene.
(§2) (1) In accordance with the aforementioned method, induction of cellular senescence was tested by carrying out gene transfer into the WI-38 cell and thereby constructing a system which can induce cellular senescence by the administration of tamoxifen.
(§3) The results are shown in FIG. 12, FIG. 13, FIG. 14 and FIG. 15.

[2] = tested on: WI-38 cell with activated Raf kinase region-estrogen receptor fusion gene; assay: Cell growth in tamoxifen-inducible activated Raf cellular senescence system; type: cell-based, human; details: for inhibition of the termination of cell growth induced by the activation of Raf: Raf activated by 10 nM tamoxifen, 25 μM inhibitor added simultaneously
Procedure: as §1, §2, §3

[3] = tested on: phosphorylation type p38 protein (active type p38 protein); assay: Western blotting of phosphorylated state of p38 protein; type: cell-based, human; details: young cell (42 PD), 30 μmol//L anisomycin for 30 minutes, positive control, versus untreated young cell
Excerpt: In this reference example, the phosphorylated state of p38 protein in young and senescent cells of the human normal fibroblast WI-38 was confirmed by a Western blotting respectively using an antibody capable of detecting total p38 protein and another antibody capable of specifically detecting a phosphorylation type p38 protein (namely active type p38 protein) alone.
Specifically, young and senescent cells of the human normal fibroblast WI-38 (about 5×10^6 cells) cultured in the same manner as in Reference Example 1(1) were respectively dissolved in 0.1 ml of a buffer solution for dissolution [lysis buffer; 150 mmol//L sodium chloride, 0.5% NP-40, 50 mmol//L Tris-HCl (pH 7.5), 3 mmol//L EDTA, 3 mmol//L EGTA, 3 mmol//L glycerophosphate, […] Na3VO4, 1 μg/ml leupeptin and 1 mmol//L phenylmethanesulfonyl fluoride (PMSF)].
Subsequently, each extraction sample corresponding to 30 μg as the amount of protein was separated by an SDS polyacrylamide gel electrophoresis in the usual way and then transferred on a membrane (Immobilon-P membrane; manufactured by Millipore). After subjecting the membrane to a blocking treatment using a commercially available blocking agent (Block Ace; manufactured. by Dainippon Pharmaceutical), a primary antibody reaction and a secondary antibody reaction were carried out in order. […]

[4] = tested on: MKK6 gene- or MKK6EE gene-introduced human normal fibroblast WI-38; assay: Ratio of β-galactosidase positive cells in MKK6 or MKK6EE gene-introduced transformed cell; type: cell-based; details: 10 μmol//L SB203580, culturing period of 6 days
Procedure: Specifically, young and senescent cells of the human normal fibroblast WI-38 were respectively washed with PBS and then fixed using 0.5% glutaraldehyde aqueous solution. After the fixation, the cells were soaked in a staining solution [prepared by dissolving 1 mg/ml of X-gal (5-bromo-4-chloro-3-indolyl-β-galactosidase), 5 mmol//L potassium ferrocyanide, 5 mmol//L potassium feriocyanide and 1 mmol//L magnesium chloride in phosphate buffered saline (PBS; pH 6.0)] and allowed to react at 37° C. for 5 hours or more.
Next, the procedure described in Reference Example 1 (2) was repeated, except that the two species of the transformed cell of the present invention and one species of a control cell wherein the vector alone was introduced, obtained by repeating the same procedure of Example 2(1), (cells after a culturing period of 6 days in each case; SB203580-untreated cells) and the two species of the transformed cell of the present invention and one species of a control cell wherein the vector alone was introduced, obtained by repeating the same procedure of Example 2(2), (cells after a culturing period of 6 days in each case; SB203580-treated cells) were used. […]

[5] = tested on: MKK6 gene- or MKK6EE gene-introduced human normal fibroblast WI-38; details: 10 μmol//L SB203580 from the 4th day after infection, 6 days culture
Procedure: As the target cell, young cell (42 PD; 5×10^5 cells/10 cm dish) of the human normal fibroblast WI-38 was cultured for 8 hours in the virus supernatant to which polybrene (final concentration=8 μg/ml) had been added. The virus supernatant was once removed, and then fresh virus supernatant [containing polybrene (final concentration=8 μg/ml)] was again added, followed by the culturing for 8 hours. Each of the infection-treated cells was cultured for 3 days in DMEM containing puromycin (2.5 μg/ml).
On the 4th day after carrying out the infection, the medium was changed to DMEM containing 2.5% dimethyl sulfoxide (DMSO), followed by the culturing for 6 days. […] The relative number of cells during these 6 days was measured every other day using a commercially available kit [Cell Counting Kit (WST-1 assay), manufactured. by DOJINDO].
Measurement and calculation of the relative cell number were specifically carried out by the following method. […] After the reaction, measurement was carried out using a plate reader (measuring wave length=450 nm). These were measured on three samples on each of the measuring days (on the 0th, 2nd, 4th and 6th days) during the growth period, and the average values were used as the data of respective measuring days. The relative number of cells of measured values on respective measuring days was calculated by defining the average of measured values on the 0th day as 1. […]

[6] = tested on: human normal fibroblast WI-38; assay: Cell growth curve (WST-1 relative cell number) of young and senescent WI-38 cells with p38 protein inhibitor; type: cell-based
Excerpt: In the example, effect of a p38 protein inhibitor SB203580 was compared using the same young cell (42 times of division) and senescent cell (61 times of division) of the human normal fibroblast WI-38 used in Reference Example 1. Specifically, the same procedure of the following Example 2 (2) was repeated, except that a young cell (42 times of division) and a senescent cell (61 times of division) of the human normal fibroblast WI-38 cultured in the same manner in Reference Example 1(1) were used instead of the transformed cell.
In FIG. 3, the polygonal line a is cell growth curve of the young cell in the presence of SB203580, the polygonal line b is cell growth curve of the young cell in the absence of SB203580, the polygonal line c is cell growth curve of the senescent cell in the presence of SB203580 and the polygonal line d is cell growth curve of the senescent cell in the absence of SB203580. The symbol “+SB” in FIG. 3 means that it was treated with 10 μmol//L of SB203580.
The relative number of cells during these 6 days was measured every other day using a commercially available kit [Cell Counting Kit (WST-1 assay), manufactured. by DOJINDO].
The WST-1 assay is a method to know indirectly degree of cell growth ability with the use of the calorimetric determination of the activity of dehydration reactions wherein intracellular lactate dehydrogenase and the like are related.
Measurement and calculation of the relative cell number were specifically carried out by the following method. That is, 1,000 cells per each well of a 96 well plate were precultured for 24 hours. […] After the reaction, measurement was carried out using a plate reader (measuring wave length=450 nm). These were measured on three samples on each of the measuring days (on the 0th, 2nd, 4th and 6th days) during the growth period, and the average values were used as the data of respective measuring days. The relative number of cells of measured values on respective measuring days was calculated by defining the average of measured values on the 0th day as 1.

[7] = tested on: human normal fibroblast WI-38; assay: Cell morphology and cellular senescence-specific β-galactosidase activity in WI-38 cells; type: cell-based; details: senescent cell (61 times of division), SB203580-treated
Procedure: Specifically, young and senescent cells of the human normal fibroblast WI-38 were respectively washed with PBS and then fixed using 0.5% glutaraldehyde aqueous solution. After the fixation, the cells were soaked in a staining solution [prepared by dissolving 1 mg/ml of X-gal (5-bromo-4-chloro-3-indolyl-[…]), 5 mmol//L potassium ferrocyanide, 5 mmol//L potassium feriocyanide and 1 mmol//L magnesium chloride in phosphate buffered saline (PBS; pH 6.0)] and allowed to react at 37° C. for 5 hours or more.
In addition, cell morphology and β-galactosidase activity in each treated group were analyzed in accordance with the procedure described in Reference Example 1(2).

[8] = tested on: human normal fibroblast WI-38; assay: Ratio of S phase cell by FACS analysis (BrdU labeling) in young and senescent WI-38 cells; type: cell-based
Procedure: Also, the ratio of S phase cells in each treated group was determined by FACS analysis in accordance with the procedure described in the following Example 2(3-a), and the results shown in FIG. 4. The symbol “+” in FIG. 4 means that it was treated with 10 μmol//L of SB203580.
[…] Next, the cells were fixed with 70% ethanol and treated with 2 mol//L hydrochloric acid for 30 minutes. Subsequently, they were neutralized with 0.1 mol//L sodium borate and then allowed to react with FITC-labeled anti-BrdU antibody (manufactured by BECTON DICKINSON) for 1 hour. After completion of the reaction, the cells were washed with a washing buffer [PBS containing 0.5% Tween 20 and 1% bovine serum albumin (BSA)] and suspended in a PBS solution containing 5 μg/ml ProPidium Iodide (PI). The samples were analyzed by a two dimensional flow cytometry.

[9] = induction of cellular senescence via Raf-estrogen receptor fusion
[10] = young cell (42 times of division), 10 μmol//L SB203580, same in presence or absence

CC/C(=C(\c1ccccc1)c1ccc(OCCN(C)C)cc1)c1ccccc1 [tamoxifen]
tamoxifen concentration at which increase of cellular senescence-specific β-galactosidase positive cell was observed [1, 9]: ≥ 1 nM | tamoxifen concentration at which termination of cell growth was observed [2, 9]: ≥ 1 nM

COc1cccc(-c2cc(=O)c3ccccc3o2)c1N [PD98059]
inhibition of the increase of cellular senescence-specific β-galactosidase positive cell induced by the activation of Raf [1]: partially inhibited | inhibition of the termination of cell growth induced by the activation of Raf [2]: partially inhibited

COc1ccc(C[C@H]2NC[C@H](O)[C@H]2OC(C)=O)cc1 [anisomycin]
active type p38 protein amount [3]: increased

C[S+]([O-])c1ccc(-c2nc(-c3ccc(F)cc3)c(-c3ccncc3)[nH]2)cc1 (stereo not shown) [SB203580, 4-[4-(4-fluorophenyl)-2-[4-(methylsulfinyl)phenyl]-1H-imidazol-5-yl]-pyridine]
increase of the cellular senescence-specific β-galactosidase positive cells [4]: inhibited | growth inhibitory effect by the MKK6 gene or MKK6EE gene [5]: inhibited | anti-aging activity upon senescent cell ([6]; senescent cell (61 PD) of WI-38, illustrative data not shown): showed the anti-aging activity | cell growth in comparison with the untreated case ([6]; senescent cell (61 times of division), 10 μmol//L SB203580): accelerated growth | doubling time [6, 10]: about 2 days | inhibition of the increase of cellular senescence-specific β-galactosidase positive cell induced by the activation of Raf [1]: more strongly than the PD98059 | inhibition of the termination of cell growth induced by the activation of Raf [2]: more strongly than the PD98059 | cellular senescence-specific β-galactosidase-positive degree [7]: low | morphology of the flat cytoplasm [7]: became thin | S phase cell ([8]; senescent cell (61 times of division), 10 μmol//L SB203580, 72 hours of BrdU labeling, untreated about 5%): about 25% | S phase cell [8, 10]: about 20%
